Test results: patent publication US7183091B2, “Sulfite reductase, the process for producing the same and the use thereof” (Nugen Bioscience (Taiwan) Co., Ltd., priority 2003, dated 2007)
Read-outs that look alike come from different tables or passages of the source.

Assays:
[1] = system: sulfite reductase from Escherichia coli; test: Effects of metal ions, inhibitors and reducing agents on enzyme activity; assay type: biochemical
Description: (§1) […]. To 0.9 mL reaction mixture [0.1 M phosphate buffer (pH 7.7) containing 0.5 mM EDTA, 0.5 mM NaHSO3, 1 μM FMN, and 0.2 mM NADPH], 0.1 mL of reductase was added and incubated at 25° C. The activity was determined according to the initial velocity after the addition of reductase and corrected by the slow oxidation of NADPH in the absence of sulfite. One activity unit was defined as the amount of enzyme which catalyzed the oxidation of 1 μmol NADPH within 1 minute reaction 25° C. under the above condition.

[2] = target: T1, sulfite reductase from Saccharomyces cerevisiae (Saccharomyces cerevisiae, UniProt P39692+P47169); test: as above; assay type: biochemical; details: for effect of metal ions on catalytic activity: metals 0.5, 1.0, 5.0 and 10.0 mM
T1 construct: Saccharomyces cerevisiae cell was collected by 30 min centrifugation at 4,000×g; made in house; host or cells: endogenous enzyme purified from cultured Saccharomyces cerevisiae cells (not recombinant)
T1 sequence (P47169 1-1442): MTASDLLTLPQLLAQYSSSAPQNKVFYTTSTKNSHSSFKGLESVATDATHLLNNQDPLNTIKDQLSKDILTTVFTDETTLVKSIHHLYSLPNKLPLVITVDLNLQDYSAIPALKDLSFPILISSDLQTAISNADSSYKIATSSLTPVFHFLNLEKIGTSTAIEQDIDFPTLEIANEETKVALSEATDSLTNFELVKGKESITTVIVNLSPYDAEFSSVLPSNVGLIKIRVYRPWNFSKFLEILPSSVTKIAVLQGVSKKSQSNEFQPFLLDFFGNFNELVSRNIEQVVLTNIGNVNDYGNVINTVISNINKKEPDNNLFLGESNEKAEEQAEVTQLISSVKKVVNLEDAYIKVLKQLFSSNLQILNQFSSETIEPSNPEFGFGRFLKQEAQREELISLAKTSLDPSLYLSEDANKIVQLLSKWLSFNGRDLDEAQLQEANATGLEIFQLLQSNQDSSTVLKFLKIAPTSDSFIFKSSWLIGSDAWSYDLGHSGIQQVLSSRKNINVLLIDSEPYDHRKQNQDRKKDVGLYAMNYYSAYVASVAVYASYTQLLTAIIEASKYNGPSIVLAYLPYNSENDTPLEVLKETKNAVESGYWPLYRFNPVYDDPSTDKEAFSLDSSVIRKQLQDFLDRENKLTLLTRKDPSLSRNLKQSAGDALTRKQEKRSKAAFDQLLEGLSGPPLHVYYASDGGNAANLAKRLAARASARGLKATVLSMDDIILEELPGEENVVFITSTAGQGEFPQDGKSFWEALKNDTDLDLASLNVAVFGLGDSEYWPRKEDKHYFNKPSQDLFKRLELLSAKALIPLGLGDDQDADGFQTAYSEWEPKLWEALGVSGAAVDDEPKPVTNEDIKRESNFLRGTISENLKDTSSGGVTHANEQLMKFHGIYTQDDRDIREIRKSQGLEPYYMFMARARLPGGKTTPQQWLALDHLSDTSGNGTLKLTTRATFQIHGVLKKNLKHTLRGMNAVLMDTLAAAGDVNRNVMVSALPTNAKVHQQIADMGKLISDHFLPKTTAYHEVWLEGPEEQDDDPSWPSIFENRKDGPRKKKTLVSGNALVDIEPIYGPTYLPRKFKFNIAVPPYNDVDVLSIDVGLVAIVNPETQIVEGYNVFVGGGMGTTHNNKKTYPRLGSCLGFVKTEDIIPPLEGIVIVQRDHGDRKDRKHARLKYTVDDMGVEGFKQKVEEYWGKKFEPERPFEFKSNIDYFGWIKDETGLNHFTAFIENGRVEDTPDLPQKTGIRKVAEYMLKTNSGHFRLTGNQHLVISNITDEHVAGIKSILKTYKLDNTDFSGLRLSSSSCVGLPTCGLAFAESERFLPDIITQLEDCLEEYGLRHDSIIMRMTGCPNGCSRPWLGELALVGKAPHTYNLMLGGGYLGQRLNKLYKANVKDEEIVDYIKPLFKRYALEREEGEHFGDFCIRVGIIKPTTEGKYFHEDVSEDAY
T1 sequence (P39692 1-1035): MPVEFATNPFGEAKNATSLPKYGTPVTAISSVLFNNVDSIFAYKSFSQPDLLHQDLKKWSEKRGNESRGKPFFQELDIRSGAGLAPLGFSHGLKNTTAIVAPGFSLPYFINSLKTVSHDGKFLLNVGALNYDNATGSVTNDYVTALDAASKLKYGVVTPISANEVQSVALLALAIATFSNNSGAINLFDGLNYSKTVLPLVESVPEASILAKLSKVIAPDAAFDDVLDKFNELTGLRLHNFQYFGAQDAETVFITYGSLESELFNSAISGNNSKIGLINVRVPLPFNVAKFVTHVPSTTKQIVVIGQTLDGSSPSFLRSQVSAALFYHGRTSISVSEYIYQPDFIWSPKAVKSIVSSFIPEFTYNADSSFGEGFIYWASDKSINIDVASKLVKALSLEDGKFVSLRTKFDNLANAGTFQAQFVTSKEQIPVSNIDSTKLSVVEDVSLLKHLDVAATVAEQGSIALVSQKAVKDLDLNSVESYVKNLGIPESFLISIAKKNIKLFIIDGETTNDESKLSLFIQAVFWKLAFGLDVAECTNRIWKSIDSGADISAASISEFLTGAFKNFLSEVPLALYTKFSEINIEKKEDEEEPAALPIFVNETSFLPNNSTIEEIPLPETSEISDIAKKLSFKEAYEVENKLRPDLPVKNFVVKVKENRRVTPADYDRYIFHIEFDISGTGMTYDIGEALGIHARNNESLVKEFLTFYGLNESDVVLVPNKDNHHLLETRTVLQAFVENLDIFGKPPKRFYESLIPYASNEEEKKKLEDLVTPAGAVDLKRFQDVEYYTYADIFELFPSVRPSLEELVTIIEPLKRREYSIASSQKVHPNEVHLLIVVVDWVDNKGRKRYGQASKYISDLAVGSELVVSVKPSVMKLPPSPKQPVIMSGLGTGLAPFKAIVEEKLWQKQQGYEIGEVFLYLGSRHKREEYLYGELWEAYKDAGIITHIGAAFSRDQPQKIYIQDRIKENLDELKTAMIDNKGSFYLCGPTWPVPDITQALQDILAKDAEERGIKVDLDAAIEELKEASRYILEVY
Description: as §1

[3] = Optimal pH value of the sulfite reductase; assay type: biochemical; details: 25° C., 5 minutes
Description: Optimal pH value. To 0.9 mL reaction mixture with various pHs (0.2 M citrated buffer: pH 4.0 to 6.0; 0.2 M phosphate buffer: pH 6.0 to 8.0 and 0.2 M bicarbonate buffer: pH 8.0 to 10,0; all buffers containing 0.5 mM EDTA, 0.5 mM NaHSO3, 1 μM FMN, and 0.2 mM NADPH), 0.1 mL of reductase was added and incubated at 25° C. for 5 minutes. The activity was determined from initial velocity and corrected by the oxidation of NADPH in the absence of sulfite according the method of Siegel and others (1973).

[4] = Stability of low temperature storage of the enzyme solution; assay type: physicochemical
Description: The enzyme solution was stored at 4° C. and −20° C., respectively. The residue enzyme activity was determined per constant time interval to test the stability of low-temperature storage.

[5] = Determination of sulfite reductase activity (oxidation of NADPH by sulfite, 340 nm); assay type: biochemical
Description: The sulfite reductase activity was measured spectrophotometrically at 340 nm under aerobic conditions by following the oxidation of NADPH by sulfite according to the method of determining enzyme activity of Siegel and others (1973). To 0.9 mL reaction mixture [0.1 M phosphate buffer (pH 7.7) containing 0.5 mM EDTA, 0.5 mM NaHSO3, 1 μM FMN, and 0.2 mM NADPH], 0.1 mL of reductase was added and incubated at 25° C. The activity was determined according to the initial velocity after the addition of reductase and corrected by the slow oxidation of NADPH in the absence of sulfite. One activity unit was defined as the amount of enzyme which catalyzed the oxidation of 1 μmol NADPH within 1 minute reaction 25° C. under the above condition.

[6] = Optimal temperature of the sulfite reductase; assay type: biochemical; details: pH 7.7, 5 minutes
Description: Optimal temperature. To 0.9 mL reaction mixture [0.1 M phosphate buffer (pH 7.7) containing 0.5 mM EDTA, 0.5 mM NaHSO3, 1 μM FMN, and 0.2 mM NADPH], 0.1 mL of reductase was added and incubated at various temperatures (5, 10, 15, 20, 25, 30, 35, 40, 45, 50, 55 and 60° C.) for 5 minutes. The activity was determined from initial velocity and corrected by the oxidation of NADPH in the absence of sulfite according the method of Siegel and others (1973).

[7] = metals 0.5, 1.0, 5.0 and 10.0 mM, 25° C., 30 minutes
[8] = inhibitor 1.0 mM, 25° C., 30 minutes

Molecule	effect of metal ions on catalytic activity [1, 7]	effect of metal ions on catalytic activity ([2]; 25° C., 30 minutes)	further results
O[C@H](CS)[C@H](O)CS (racemic) [dithiothreitol]			effect of reducing agents on enzyme activity [1]: improved the activity; effect of reducing agents on enzyme activity [2]: improved the activity
[Ba+2] [Ba^2+]	moderately	partially	
[Ca+2] [Ca^2+]	strongly inhibited	did not affect the enzyme activity	
[Cd+2] [Cd^2+]	moderately		
[Co+2] [Co^2+]	strongly inhibited	partially	
[Cu+2] [Cu^2+]	strongly inhibited	strongly inhibited	
[Fe+2] [Fe^2+]	strongly inhibited	partially	
[Hg+2] [Hg^2+]	strongly inhibited	strongly inhibited	
O=C(O)CI [IAA, Iodoacetate]			effect of inhibitors on catalytic activity [1]: partially; effect of inhibitors on catalytic activity [2]: partially
[K+] [K^+]		did not affect the enzyme activity	effect of metal ions on catalytic activity [1]: did not affect the enzyme activity
[Mg+2] [Mg^2+]	did not affect the enzyme activity	did not affect the enzyme activity	
[Mn+2] [Mn^2+]	moderately	partially	
CCN1C(=O)C=CC1=O [NEM, N-ethylmaleimide]			effect of inhibitors on catalytic activity [1, 8]: partially; effect of inhibitors on catalytic activity [2, 8]: partially
[Na+] [Na^+]	did not affect the enzyme activity	did not affect the enzyme activity	
[Ni+2] [Ni^2+]		partially	
O=C(O)c1cc[c]([Hg][Cl])cc1 [PCMB, p-chloromercuribenzoate]			effect of inhibitors on catalytic activity [1, 8]: completely inhibited; effect of inhibitors on catalytic activity [2, 8]: completely inhibited
O=S(=O)(O)c1cc[c]([Hg][Cl])cc1 [PCMPS, p-chloromercuriphenylsulfonic acid]			effect of inhibitors on catalytic activity [2, 8]: completely inhibited
O=S(=O)(F)Cc1ccccc1 [PMSF, phenylmethylsulfonyl fluoride]			effect of inhibitors on catalytic activity [1, 8]: partially; effect of inhibitors on catalytic activity [2, 8]: partially
[Pb+2] [Pb^2+]		strongly inhibited	
[Zn+2] [Zn^2+]	moderately	strongly inhibited	
N[C@@H](CS)C(=O)O [cysteine]			effect of reducing agents on enzyme activity [1]: improved the activity; effect of reducing agents on enzyme activity [2]: improved the activity
N[C@@H](CCC(=O)N[C@@H](CS)C(=O)NCC(=O)O)C(=O)O [glutathione]			effect of reducing agents on enzyme activity [1]: improved the activity; effect of reducing agents on enzyme activity [2]: improved the activity
OCCS [β-mercaptoethanol]			effect of reducing agents on enzyme activity [1]: improved the activity; effect of reducing agents on enzyme activity [2]: improved the activity
sulfite reductase from Saccharomyces cerevisiae: purified sulfite reductase from Saccharomyces cerevisiae (CCRC 22223), molecular weight 358,000			optimum pH [3]: 7.3; enzyme activity after storage ([4]; enzyme solution stored for 2 months at −20° C.): nearly not changed; enzyme activity after storage ([4]; enzyme solution stored for 28 days at 4° C.): 77.8%; specific activity ([5]; Table 2, purification steps of the Saccharomyces cerevisiae enzyme): 1.34 units/mg; specific activity ([5]; purified enzyme, 25° C., pH 7.7): 1.34 units/mg; optimum temperature [6]: 25 °C
